Values of other authors, collected in article PMC9369419 (International Journal of Molecular Sciences, 2022).

Key:
Settings in all cases: recombinant rat iGluR, mean ± SEM; cited from earlier work
GluK1 = target: T1, GluK1 (Rattus norvegicus, UniProt P22756)
T1 construct: made in house; host or cells: Sf9 insect cells (membranes)

GluK2 = target: T2, GluK2 (Rattus norvegicus, UniProt P42260)
T2 construct: made in house; host or cells: Sf9 insect cells (membranes)

GluK5 = target: T3, GluK5 (Rattus norvegicus, UniProt Q63273)
T3 construct: made in house; host or cells: Sf9 insect cells (membranes)
T3 sequence (Q63273 15-979): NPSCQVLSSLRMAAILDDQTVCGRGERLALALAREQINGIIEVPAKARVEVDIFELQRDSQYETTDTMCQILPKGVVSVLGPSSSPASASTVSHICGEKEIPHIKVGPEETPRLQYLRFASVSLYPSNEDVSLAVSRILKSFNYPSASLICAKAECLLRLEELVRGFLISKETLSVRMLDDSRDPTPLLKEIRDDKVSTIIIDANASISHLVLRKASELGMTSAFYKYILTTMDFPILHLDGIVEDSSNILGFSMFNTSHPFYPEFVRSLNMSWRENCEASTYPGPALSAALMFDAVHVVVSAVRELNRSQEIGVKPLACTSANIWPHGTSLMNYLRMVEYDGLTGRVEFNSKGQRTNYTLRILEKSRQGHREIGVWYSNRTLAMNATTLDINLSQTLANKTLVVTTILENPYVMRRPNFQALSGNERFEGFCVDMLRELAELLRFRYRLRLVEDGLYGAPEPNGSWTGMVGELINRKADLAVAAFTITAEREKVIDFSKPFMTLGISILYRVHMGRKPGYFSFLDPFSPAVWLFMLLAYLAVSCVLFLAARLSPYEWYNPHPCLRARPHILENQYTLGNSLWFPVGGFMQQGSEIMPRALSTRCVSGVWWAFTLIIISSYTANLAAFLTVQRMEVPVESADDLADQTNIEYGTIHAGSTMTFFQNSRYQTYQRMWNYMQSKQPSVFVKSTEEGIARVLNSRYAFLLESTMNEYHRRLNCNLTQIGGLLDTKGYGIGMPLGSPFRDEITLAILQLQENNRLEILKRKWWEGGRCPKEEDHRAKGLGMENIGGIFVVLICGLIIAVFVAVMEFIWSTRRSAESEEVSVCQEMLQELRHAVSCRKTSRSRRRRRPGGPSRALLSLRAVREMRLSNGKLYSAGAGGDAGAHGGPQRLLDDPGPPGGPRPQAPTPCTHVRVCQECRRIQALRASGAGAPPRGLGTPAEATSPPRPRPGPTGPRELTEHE

GluA2 = target: T4, GluA2 (Rattus norvegicus, UniProt P19491)
T4 construct: made in house; host or cells: Sf9 insect cells (membranes)
T4 sequence (P19491 22-883): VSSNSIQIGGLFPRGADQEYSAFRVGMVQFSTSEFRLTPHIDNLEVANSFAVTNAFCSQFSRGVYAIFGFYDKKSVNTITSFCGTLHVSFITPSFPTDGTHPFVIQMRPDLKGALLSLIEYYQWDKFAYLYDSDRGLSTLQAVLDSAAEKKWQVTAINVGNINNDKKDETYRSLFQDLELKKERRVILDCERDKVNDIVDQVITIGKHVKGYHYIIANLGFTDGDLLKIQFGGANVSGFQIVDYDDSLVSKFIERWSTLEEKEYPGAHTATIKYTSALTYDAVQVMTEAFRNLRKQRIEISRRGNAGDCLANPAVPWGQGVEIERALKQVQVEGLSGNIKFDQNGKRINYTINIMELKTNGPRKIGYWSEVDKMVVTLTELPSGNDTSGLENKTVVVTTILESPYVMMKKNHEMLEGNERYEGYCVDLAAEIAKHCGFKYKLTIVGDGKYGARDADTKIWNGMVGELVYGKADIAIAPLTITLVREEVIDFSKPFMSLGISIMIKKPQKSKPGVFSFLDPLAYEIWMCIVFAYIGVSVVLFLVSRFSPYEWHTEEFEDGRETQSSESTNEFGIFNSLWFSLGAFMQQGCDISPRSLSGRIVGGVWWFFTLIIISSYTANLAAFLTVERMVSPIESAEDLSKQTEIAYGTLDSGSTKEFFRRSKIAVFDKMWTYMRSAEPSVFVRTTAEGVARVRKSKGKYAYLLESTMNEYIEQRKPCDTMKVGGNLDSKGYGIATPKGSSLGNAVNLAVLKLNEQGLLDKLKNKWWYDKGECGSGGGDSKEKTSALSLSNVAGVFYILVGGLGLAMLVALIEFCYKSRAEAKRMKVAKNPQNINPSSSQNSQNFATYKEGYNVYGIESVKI

GluK3 = target: T5, GluK3 (Rattus norvegicus, UniProt P42264)
T5 construct: made in house; host or cells: Sf9 insect cells (membranes)
T5 sequence (P42264 32-919): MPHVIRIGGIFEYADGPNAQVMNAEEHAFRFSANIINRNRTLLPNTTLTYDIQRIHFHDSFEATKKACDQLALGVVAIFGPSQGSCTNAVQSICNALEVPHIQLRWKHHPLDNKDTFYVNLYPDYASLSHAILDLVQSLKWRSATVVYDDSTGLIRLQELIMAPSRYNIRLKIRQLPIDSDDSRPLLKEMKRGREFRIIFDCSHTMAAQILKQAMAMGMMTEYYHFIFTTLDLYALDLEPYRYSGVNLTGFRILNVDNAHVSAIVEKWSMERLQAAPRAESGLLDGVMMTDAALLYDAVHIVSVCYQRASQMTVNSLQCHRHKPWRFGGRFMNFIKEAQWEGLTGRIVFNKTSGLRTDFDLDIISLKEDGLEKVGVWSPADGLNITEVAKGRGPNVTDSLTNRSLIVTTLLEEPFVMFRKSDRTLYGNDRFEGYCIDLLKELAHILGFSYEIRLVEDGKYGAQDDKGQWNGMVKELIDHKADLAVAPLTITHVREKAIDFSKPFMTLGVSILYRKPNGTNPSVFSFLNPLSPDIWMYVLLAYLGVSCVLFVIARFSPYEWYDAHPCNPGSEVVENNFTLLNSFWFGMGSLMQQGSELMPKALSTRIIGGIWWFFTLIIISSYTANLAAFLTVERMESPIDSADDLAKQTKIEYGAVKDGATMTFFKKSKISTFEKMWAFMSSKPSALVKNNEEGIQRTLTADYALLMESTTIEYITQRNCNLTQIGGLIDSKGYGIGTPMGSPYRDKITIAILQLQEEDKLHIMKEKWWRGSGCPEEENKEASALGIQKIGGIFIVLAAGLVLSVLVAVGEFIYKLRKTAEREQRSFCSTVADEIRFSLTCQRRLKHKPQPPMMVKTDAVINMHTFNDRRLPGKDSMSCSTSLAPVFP

T1 sequence (P22756 31-949): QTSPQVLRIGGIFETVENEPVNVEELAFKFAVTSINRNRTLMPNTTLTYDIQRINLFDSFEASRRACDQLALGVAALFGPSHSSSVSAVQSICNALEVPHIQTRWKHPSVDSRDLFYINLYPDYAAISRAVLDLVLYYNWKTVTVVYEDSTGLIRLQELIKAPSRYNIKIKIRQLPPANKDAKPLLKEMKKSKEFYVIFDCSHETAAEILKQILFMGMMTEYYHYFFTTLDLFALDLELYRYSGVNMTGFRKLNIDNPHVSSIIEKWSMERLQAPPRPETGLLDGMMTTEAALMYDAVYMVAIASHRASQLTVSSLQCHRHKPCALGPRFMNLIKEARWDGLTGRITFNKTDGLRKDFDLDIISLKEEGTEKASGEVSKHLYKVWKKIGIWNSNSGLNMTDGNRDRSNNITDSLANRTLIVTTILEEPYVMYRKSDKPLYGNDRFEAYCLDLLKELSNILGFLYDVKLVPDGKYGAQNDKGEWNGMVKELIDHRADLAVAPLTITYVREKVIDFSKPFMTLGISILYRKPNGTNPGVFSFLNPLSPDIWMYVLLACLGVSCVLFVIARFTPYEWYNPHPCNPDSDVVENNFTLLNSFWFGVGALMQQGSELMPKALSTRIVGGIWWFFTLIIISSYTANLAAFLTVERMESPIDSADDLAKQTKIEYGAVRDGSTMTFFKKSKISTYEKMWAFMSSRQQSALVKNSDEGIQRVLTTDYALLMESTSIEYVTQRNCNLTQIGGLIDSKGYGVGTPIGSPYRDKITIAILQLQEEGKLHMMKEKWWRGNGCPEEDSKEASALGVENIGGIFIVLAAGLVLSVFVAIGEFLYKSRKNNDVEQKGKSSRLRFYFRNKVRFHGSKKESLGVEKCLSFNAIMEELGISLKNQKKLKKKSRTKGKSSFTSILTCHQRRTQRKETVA
T2 sequence (P42260 32-908): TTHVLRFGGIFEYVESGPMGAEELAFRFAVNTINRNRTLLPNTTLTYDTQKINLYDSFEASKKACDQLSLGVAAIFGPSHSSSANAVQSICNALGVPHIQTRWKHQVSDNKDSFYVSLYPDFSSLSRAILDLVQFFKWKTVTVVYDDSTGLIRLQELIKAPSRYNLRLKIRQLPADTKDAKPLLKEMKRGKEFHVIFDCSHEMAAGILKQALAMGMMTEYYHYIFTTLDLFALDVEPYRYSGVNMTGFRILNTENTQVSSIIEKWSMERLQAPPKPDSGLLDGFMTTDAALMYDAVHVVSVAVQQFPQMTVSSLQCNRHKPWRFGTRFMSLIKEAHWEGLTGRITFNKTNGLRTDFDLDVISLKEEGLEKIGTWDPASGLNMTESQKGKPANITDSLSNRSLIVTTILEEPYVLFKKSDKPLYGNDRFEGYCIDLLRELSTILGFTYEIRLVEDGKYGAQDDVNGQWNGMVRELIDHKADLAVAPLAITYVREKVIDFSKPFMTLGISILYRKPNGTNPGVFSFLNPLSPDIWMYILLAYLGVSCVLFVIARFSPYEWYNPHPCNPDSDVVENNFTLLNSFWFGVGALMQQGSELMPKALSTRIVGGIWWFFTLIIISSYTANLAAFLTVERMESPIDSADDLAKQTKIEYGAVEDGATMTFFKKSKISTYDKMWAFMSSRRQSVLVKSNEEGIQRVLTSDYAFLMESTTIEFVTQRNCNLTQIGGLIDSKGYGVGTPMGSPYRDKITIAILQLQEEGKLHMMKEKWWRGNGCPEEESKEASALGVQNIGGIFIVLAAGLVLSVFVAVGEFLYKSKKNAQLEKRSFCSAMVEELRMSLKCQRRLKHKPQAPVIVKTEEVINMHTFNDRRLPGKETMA

| Structure (SMILES) | Ki (GluK1) | Ki (GluK2) | Ki (GluK5) | Ki (GluA2) | Ki (GluK3) |
| --- | --- | --- | --- | --- | --- |
| O=C(Nn1c(=O)c(=O)[nH]c2cc(C#Cc3ccccc3)ccc21)c1ccccc1 [Compound 1, N-(2,3-dioxo-6-(phenylethynyl)-3,4-dihydroquinoxalin-1(2H)-yl)benzamide] | > 100 µM | ~100 µM | > 100 µM | 24 ± 6 µM |  |
| O=c1[nH]c2cc([N+](=O)[O-])c([N+](=O)[O-])cc2[nH]c1=O [DNQX] | 0.65 ± 0.03 µM | 2.1 ± 0.3 µM | 7.1 ± 0.9 µM |  | 0.36 ± 0.03 µM |
